# Assay results reported in USRE42152E1, “Aromatic-linked polyamine macrocyclic compounds with anti-HIV activity” (Genzyme Corporation, priority 1992, dated 2011).
# Where two headings read alike, the source gives them in different places.
# Columns and labels:
# Format in all cases: cell-based
# HIV-1 (HTLV-IIIB) = assay: microbe, parasite or virus in culture; details: for IC50: Human immunodeficiency virus 1, IIIB, MT4, 120 h, read-out: IC50 HIV-1 (IIIB)
# HIV-2 (LAV-2 ROD) = assay: MTT anti-viral screen, MT-4 cells challenged with HIV-2; details: for IC50: Human immunodeficiency virus 2, MT4, 120 h, read-out: IC50 HIV-2 (ROD)
# MT-4 cells = assay: Cytotoxicity by MTT method in MT-4 cells
# [1] = Cytotoxicity by MTT method in MT-4 cells
# [2] = test system: HIV uncoating (or fusion); assay: Sensitivity of viral RNA from freshly infected MT4 cells to RNase degradation (uncoating); details: radiolabelled viral particles, RNA harvested 4 hours after infection
# Description: It was reasoned that if tincoating (fusion) was hampered, the viral capsid (or envelope) proteins would remain associated with the viral RNA genome and thus the RNA should be protected against RNase attack.
# HIV-1 strain IIIb = assay: Time-of-addition experiment, MT4 cells infected with HIV-1 IIIb, p24 antigen; details: HIV-1 IIIb at high multiplicity, p24 at 29 hours after infection
# Experimental: To pinpoint the stage at which the compounds interact with the HIV replicative cycle, a time-of-addition experiment was carried out on MT4 cells infected with HIV-1 strain IIIb at high virus multiplicity to ensure that the virus replicative steps would be synchronised in the whole cell populations. Test compounds wife added 1, 2, 3, . . . 22, 23, 24 hours after infection, and vital p24 antigen production determined 29 hours after infection.
# Depending on the stage at which compounds interact and the need for intracellular metabolism, addition of the compounds could be delayed for n hours without loss of activity.
# [3] = MT-4 cells, 5 days, MTT, HIV-2 part of table
# [4] = human; MT-4 cells, 5 days, MTT; HIV-1 part of table; read-out: CC50 (HIV-1 (IIIB))
# [5] = MT-4 cells, 100 CCID50, 5 days, MTT
# [6] = MT-4 cells, 5 days, MTT, HIV-1 part of table
# [7] = human, MT-4 cells, 5 days, MTT; HIV-1 part of table; read-out: CC50 (HIV-1 (IIIB))
# [8] = human, MT-4 cells, 5 days, MTT; HIV-2 part of table; read-out: CC50 (HIV-2 (ROD))
molecule,measurement,setting,value
"Br.Br.Br.Br.Br.Br.Br.Br.O.O.c1cc(CN2CCCNCCNCCNCCC2)ccc1CN1CCCNCCNCCNCCC1 [Compound M, 11,11′-[1,4-Phenylene-bis-(methylene)]-bis-1,4,7,11-tetraazacyclotetradecane octahydrobromide dihydrate]",IC50,HIV-1 (HTLV-IIIB),0.03 µg/mL
same,IC50,HIV-2 (LAV-2 ROD),0.07 µg/mL
same,CC50 (HIV-2 (ROD)),MT-4 cells; [3],>500 µg/mL
same,CC50 at 5 days,[1]; [4],> 500 µg/mL
"Br.Br.Br.Br.Br.Br.Br.Br.Br.O.O.c1ncc(CN2CCCNCCNCCCNCC2)cc1CN1CCCNCCNCCCNCC1 [Compound P, 1,1′[3,5-Pyridinebis-(methylene)]-bis-1,4,8,11-tetraazacyclotetradecane nonahydrobromide dihydrate]",IC50 HIV-1 (IIIB),HIV-1 (HTLV-IIIB); [5],0.04 µg/mL
same,IC50 HIV-2 (ROD),HIV-2 (LAV-2 ROD); [5],0.09 µg/mL
same,CC50 (HIV-1 (IIIB)),MT-4 cells,>500 µg/mL
same,CC50 (HIV-2 (ROD)),MT-4 cells,>500 µg/mL
"1,1′-[1,4-Phenylene-bis-(methylene)]-bis-1,4,8,11-tetraazacyclotetradecane copper diacetate hexahydrate [Compound G]",IC50 HIV-1 (IIIB),HIV-1 (HTLV-IIIB); [5],0.018 µg/mL
same,IC50 HIV-2 (ROD),HIV-2 (LAV-2 ROD); [5],0.027 µg/mL
same,CC50 (HIV-1 (IIIB)),MT-4 cells; [6],>200 µg/mL
same,CC50 (HIV-2 (ROD)),MT-4 cells; [3],>200 µg/mL
"Br.Br.Br.Br.Br.Br.c1cc(CN2CCNCCNCCNCC2)ccc1CN1CCNCCNCCNCC1 [Compound R, 1,1′-[1,4-Phenylenebis-(methylene)]-bis-1,4,7,10-tetraazacyclododecane hexahydrobromide]",IC50,HIV-1 (HTLV-IIIB),0.3 µg/mL
same,IC50,HIV-2 (LAV-2 ROD),2.2 µg/mL
same,CC50 at 5 days,[1]; [4],51 µg/mL
"Br.Br.Br.Br.Br.Br.Br.Br.O.O.O.O.c1cc(CN2CCCNCCNCCCNCC2)nc(CN2CCCNCCNCCCNCC2)c1 [Compound O, 1,1′-[2,6-Pyridinebis-(methylene)]-bis-1,4,8,11-tetraazacyclotetradecane octahydrobromide tetrahydrate]",IC50 HIV-1 (IIIB),HIV-1 (HTLV-IIIB); [5],0.03 µg/mL
same,IC50 HIV-2 (ROD),HIV-2 (LAV-2 ROD); [5],0.08 µg/mL
same,CC50 (HIV-1 (IIIB)),MT-4 cells,>500 µg/mL
same,CC50 (HIV-2 (ROD)),MT-4 cells,>500 µg/mL
"Brc1cc(CN2CCCNCCNCCCNCC2)ccc1CN1CCCNCCNCCCNCC1 [Y, 1,1′-[2-bromo-1,4-phenylenebis-(methylene)]-bis-1,4,8,11-tetraazacyclotetradecane]",IC50,HIV-1 (HTLV-IIIB); [5],0.0075 µg/mL
same,IC50,HIV-2 (LAV-2 ROD); [5],0.0043 µg/mL
same,CC50 at 5 days,[1]; [7],> 250 µg/mL
same,CC50 at 5 days,[1]; [8],> 250 µg/mL
"O=[N+]([O-])c1cc(CN2CCCNCCNCCCNCC2)cc(CN2CCCNCCNCCCNCC2)c1 [Compound C, 1,1′-[5-nitro-1,3-phenylenebis-(methylene)]-bis-1,4,8,11-tetraazacyclotetradecane]",IC50,HIV-1 (HTLV-IIIB); [5],0.05 µg/mL
same,IC50,HIV-2 (LAV-2 ROD); [5],0.07 µg/mL
same,CC50 at 5 days,[1]; [7],55 µg/mL
same,CC50 at 5 days,[1]; [8],55 µg/mL
"Br.Br.Br.Br.Br.Br.c1cc(CN2CCNCCNCCNCC2)cc(CN2CCNCCNCCNCC2)c1 [Compound Q, 1,1′-[1,3-Phenylenebis-(methylene)]-bis-1,4,7,10-tetraazacyclododecane hexahydrobromide]",IC50,HIV-1 (HTLV-IIIB),0.07 µg/mL
same,IC50,HIV-2 (LAV-2 ROD),0.5 µg/mL
same,CC50 at 5 days,[1]; [4],19 µg/mL
"c1ccc2c(CN3CCCNCCNCCCNCC3)ccc(CN3CCCNCCNCCCNCC3)c2c1 [E, 1,1′-[1,4-naphthylenebis(methylene)]bis-1,4,8,11-tetraazacyclotetradecane]",IC50 HIV-1 (IIIB),HIV-1 (HTLV-IIIB); [5],0.07 µg/mL
same,IC50 HIV-2 (ROD),HIV-2 (LAV-2 ROD); [5],0.05 µg/mL
same,CC50 (HIV-1 (IIIB)),MT-4 cells,71 µg/mL
same,CC50 (HIV-2 (ROD)),MT-4 cells,71 µg/mL
CC(C)=CCN1Cc2cc(Cl)cc3[nH]c(=S)n(c23)C[C@@H]1C [Compound R82913],resistance of viral RNA to degradation by RNase,[2],did not show this increased resistance
same,"n, hours addition could be delayed after infection without loss of activity",HIV-1 strain IIIb,6 h
"Br.Br.Br.Br.Br.Br.Br.Br.O.O.O.O.O.O.c1cc(CN2CCCNCCNCCCNCC2)ccc1CN1CCCNCCNCCNCCC1 [Compound N, 1,11′-[1,4-Phenylene-bis-(methylene)]-1,4,8,11-tetraazacyclotetradecane-1,4,7,11-tetraazacydotetradecane octahydrobromide hexahydrate]",IC50 HIV-1 (IIIB),HIV-1 (HTLV-IIIB); [5],0.01 µg/mL
same,IC50 HIV-2 (ROD),HIV-2 (LAV-2 ROD); [5],0.07 µg/mL
same,CC50 (HIV-1 (IIIB)),MT-4 cells,>500 µg/mL
same,CC50 (HIV-2 (ROD)),MT-4 cells,>500 µg/mL
"c1ccc(-c2cc(CN3CCCNCCNCCCNCC3)cc(CN3CCCNCCNCCCNCC3)n2)cc1 [Z, 1,1′-[6-phenyl-2,4-pyridinebis-(methylene)]-bis-1,4,8,11-tetraazacyclotetradecane]",IC50 HIV-1 (IIIB),HIV-1 (HTLV-IIIB); [5],0.0489 µg/mL
same,IC50 HIV-2 (ROD),HIV-2 (LAV-2 ROD); [5],0.0246 µg/mL
same,CC50 (HIV-1 (IIIB)),MT-4 cells,>250 µg/mL
same,CC50 (HIV-2 (ROD)),MT-4 cells,>250 µg/mL
"1,1′-[1,4-Phenylene-bis-(methylene)]-bis-1,4,8,11-tetraazacyclotetradecane zinc dichloride monohydrate [Compound F]",IC50 HIV-1 (IIIB),HIV-1 (HTLV-IIIB); [5],0.0026 µg/mL
same,IC50 HIV-2 (ROD),HIV-2 (LAV-2 ROD); [5],0.0019 µg/mL
same,CC50 (HIV-1 (IIIB)),MT-4 cells; [6],>200 µg/mL
same,CC50 (HIV-2 (ROD)),MT-4 cells; [3],>200 µg/mL
"c1cc(CN2CCCNCCNCCCNCC2)cc(CN2CCCNCCNCCCNCC2)c1 [A, 1,1′-[1,3-phenylenebis(methylene)]bis-1,4,8,11-tetraazacyclotetradecane]",IC50,HIV-1 (HTLV-IIIB); [5],0.03 µg/mL
same,IC50,HIV-2 (LAV-2 ROD); [5],< 0.01 µg/mL
same,CC50 at 5 days,[1]; [7],> 500 µg/mL
same,CC50 at 5 days,[1]; [8],> 500 µg/mL
"Clc1cc(CN2CCCNCCNCCCNCC2)c(Cl)cc1CN1CCCNCCNCCCNCC1 [X, 1,1′-[2,5-dichloro-1,4-phenylenebis-(methylene)]-bis-1,4,8,11-tetraazacyclotetradecane]",IC50,HIV-1 (HTLV-IIIB); [5],0.0131 µg/mL
same,IC50,HIV-2 (LAV-2 ROD); [5],0.003 µg/mL
same,CC50 at 5 days,[1]; [7],71.9 µg/mL
same,CC50 at 5 days,[1]; [8],72.7 µg/mL
"Cc1cc(CN2CCCNCCNCCCNCC2)c(C)cc1CN1CCCNCCNCCCNCC1 [W, 1,1′-[2,5-dimethyl-1,4-phenylenebis-(methylene)]-bis-1,4,8,11-tetraazacyclotetradecane]",IC50,HIV-1 (HTLV-IIIB); [5],0.0076 µg/mL
same,IC50,HIV-2 (LAV-2 ROD); [5],0.0013 µg/mL
same,CC50 at 5 days,[1]; [7],> 250 µg/mL
same,CC50 at 5 days,[1]; [8],> 250 µg/mL
"Br.Br.Br.Br.Br.Br.Br.Br.Br.Br.O.O.O.O.O.c1cc(CN2CCCNCCNCCCNCC2)cc(-c2cc(CN3CCCNCCNCCCNCC3)ccn2)n1 [Compound K, 1,1′-[4,4′-(2,2′-Bipyridine)-bis-(methyl)]-bis-1,4,8,11-tetraazacyclotetradecane decahydrobromide pentahydrate]",IC50 HIV-1 (IIIB),HIV-1 (HTLV-IIIB); [5],0.38 µg/mL
same,IC50 HIV-2 (ROD),HIV-2 (LAV-2 ROD); [5],0.35 µg/mL
same,CC50 (HIV-1 (IIIB)),MT-4 cells; [6],117 µg/mL
same,CC50 (HIV-2 (ROD)),MT-4 cells; [3],117 µg/mL
"Br.Br.Br.Br.Br.Br.Br.Br.O.O.O.O.c1cc(CN2CCCNCCNCCCNCC2)cc(-c2cccc(CN3CCCNCCNCCCNCC3)c2)c1 [Compound J, 1,1′-[3,3′-Biphenylene-bis-(methylene)]-bis-1,4,8,11-tetraazacyclotetradecane octahydrobromide tetrahydrate]",IC50 HIV-1 (IIIB),HIV-1 (HTLV-IIIB); [5],0.16 µg/mL
same,IC50 HIV-2 (ROD),HIV-2 (LAV-2 ROD); [5],0.22 µg/mL
same,CC50 (HIV-1 (IIIB)),MT-4 cells,>200 µg/mL
same,CC50 (HIV-2 (ROD)),MT-4 cells,>200 µg/mL
"Br.Br.Br.Br.Br.Br.Br.Br.c1cc(CN2CCCNCCNCCCNCC2)sc1CN1CCCNCCNCCCNCC1 [Compound T, 1,1′-[2,5-Thophenebis-(methylene)]-bis-1,4,8,11-tetraazacyclotetradecane octahydrobromide]",IC50 HIV-1 (IIIB),HIV-1 (HTLV-IIIB); [5],0.01 µg/mL
same,IC50 HIV-2 (ROD),HIV-2 (LAV-2 ROD); [5],0.02 µg/mL
same,CC50 (HIV-1 (IIIB)),MT-4 cells,>500 µg/mL
same,CC50 (HIV-2 (ROD)),MT-4 cells,>500 µg/mL
"Br.Br.Br.Br.Br.Br.Br.Br.Br.Br.O.O.O.c1cc2ccc3ccc(CN4CCCNCCNCCCNCC4)nc3c2nc1CN1CCCNCCNCCCNCC1 [Compound L, 1,1′-[2,9-(1,10-Phenanthroline)-bis-(methylene)]-bis-1,4,8,11-tetraazacyclotetradecane decahydrobromide trihydrate]",IC50 HIV-1 (IIIB),HIV-1 (HTLV-IIIB); [5],0.29 µg/mL
same,IC50 HIV-2 (ROD),HIV-2 (LAV-2 ROD); [5],0.32 µg/mL
same,CC50 (HIV-1 (IIIB)),MT-4 cells,>200 µg/mL
same,CC50 (HIV-2 (ROD)),MT-4 cells,>200 µg/mL
O=c1[nH]cnc2c1ncn2[C@H]1CC[C@@H](CO)O1 [DDI],resistance of viral RNA to degradation by RNase,[2],did not show this increased resistance
